In ChEMBL document CHEMBL1127631, “Three-dimensional structure-activity analysis of a series of porphyrin derivatives with anti-HIV-1 activity targeted to the V3 loop of the gp120 envelope glycoprotein of the human immunodeficiency virus type 1” (J Med Chem, 1994):

System: Human immunodeficiency virus 1
Test: Inhibition of HIV-1 P24 production.
Type: functional, organism-based
[1] = read-out: Log 1/EC50 (converted)

Row | Molecule | EC50 (Human immunodeficiency virus 1) | EC50 [1] | EC50
1 | C=Cc1c(C)c2cc3[nH]c(cc4nc(cc5nc(cc1[nH]2)C(C)=C5CCC(=O)OC)C(CCC(=O)OC)=C4C)c(C)c3C=C | 67.9 µM | 67.6 µM | 
2 | CC1=C(C(O)CO)c2cc3nc(cc4[nH]c(cc5[nH]c(cc1n2)c(C)c5CCC(=O)O)c(CCC(=O)O)c4C)C(C(O)CO)=C3C (stereo unspecified) | 54.4 µM | 55 µM | 
3 | C1=C/C2=C(\c3ccccc3)C3C=CC(N3)/C(c3ccccc3)=c3/cc/c([nH]3)=C(\c3ccccc3)C3=N/C(=C(/c4ccccc4)C1=N2)C=C3 (stereo unspecified) | 54.7 µM | 55 µM | 
4 | CC1=C(CCC(=O)O)c2cc3[nH]c(cc4[nH]c(cc5nc(cc1n2)C(CCC(=O)O)=C5CC(=O)O)c(CCC(=O)O)c4C)c(CCC(=O)O)c3CC(=O)O | 20.7 µM | 20.9 µM | 
5 | O=C(O)c1ccc(/C2=C3\C=CC(=N3)/C(c3ccc(C(=O)O)cc3)=c3/cc/c([nH]3)=C(\c3ccc(C(=O)O)cc3)C3C=CC(N3)/C(c3ccc(C(=O)O)cc3)=C3/C=CC2=N3)cc1 (stereo unspecified) | 0.63 µM |  | 
6 | O=C(O)CCC1=C(CC(=O)O)c2cc3nc(cc4[nH]c(cc5[nH]c(cc1n2)c(CCC(=O)O)c5CC(=O)O)c(CC(=O)O)c4CCC(=O)O)C(CC(=O)O)=C3CCC(=O)O | 3.02 µM | 3.02 µM | 
7 | HEMIN |  |  | 35.3 µM
8 | O=C(O)CCC1=C(CC(=O)O)c2cc3nc(cc4[nH]c(cc5[nH]c(cc1n2)c(CC(=O)O)c5CCC(=O)O)c(CC(=O)O)c4CCC(=O)O)C(CC(=O)O)=C3CCC(=O)O | 9.04 µM | 9.12 µM | 
9 | O=C(O)c1ccc(/C2=C3\C=CC(=N3)/C(c3ccc(Cl)cc3)=C3/C=CC(=N3)/C(c3ccc(C(=O)O)cc3)=c3/cc/c([nH]3)=C(\c3ccc(C(=O)O)cc3)C3C=CC2N3)cc1 (stereo unspecified) | 0.758 µM | 1.32 µM | 
10 | O=C(O)C1=CC(=C(c2ccc(O)c(C(=O)O)c2)c2ccc(O)c(C(=O)O)c2)C=CC1=O [AURINTRICARBOXYLIC ACID] | 28.4 µM |  | 
11 | Cc1ccc(/C2=C3\C=CC(=N3)/C(c3ccc(C(=O)O)cc3)=c3/cc/c([nH]3)=C(\c3ccc(C)cc3)C3C=CC(N3)/C(c3ccc(C)cc3)=C3/C=CC2=N3)cc1 (stereo unspecified) | 14.7 µM | 14.8 µM | 
12 | CC1=C(CCC(=O)O)c2cc3[nH]c(cc4[nH]c(cc5nc(cc1n2)C(CCC(=O)O)=C5CC(=O)O)c(CCC(=O)O)c4CC(=O)O)c(CCC(=O)O)c3CC(=O)O | 10.7 µM | 10.7 µM | 
13 | C=CC1=C(C)c2cc3nc(cc4[nH]c(cc5c(C=C)c(C)c(cc1n2)n5C)c(C)c4CCC(=O)O)C(CCC(=O)O)=C3C | 1.03 µM | 1.02 µM | 

The next lines start with the values.

Row | EC50 (Human immunodeficiency virus 1) | EC50 [1] | EC50 | Molecule
14 | 0.774 µM | 1.29 µM |  | CN1C2C=CC1/C(c1ccc(C(=O)O)cc1)=c1/cc/c([nH]1)=C(\c1ccc(C(=O)O)cc1)C1=N/C(=C(/c3ccc(C(=O)O)cc3)C3=N/C(=C\2c2ccc(C(=O)O)cc2)C=C3)C=C1 (stereo unspecified)
15 | 6.16 µM | 6.17 µM |  | C=Cc1c(C)c2cc3[nH]c(cc4nc(cc5nc(cc1[nH]2)C(C)=C5CCC(=O)O)C(CCC(=O)O)=C4C)c(C)c3C(C)O (stereo unspecified)
16 | 2.17 µM | 2.19 µM |  | C=CC1=C(C)c2cc3[nH]c(cc4nc(cc5[nH]c(cc1n2)c(C)c5CCC(=O)O)C(CCC(=O)O)=C4C)c(C)c3C=C [PROTOPORPHYRIN]
17 | 43.3 µM | 43.7 µM |  | CC1=C(CCC(=O)O)c2cc3nc(cc4[nH]c(cc5[nH]c(cc1n2)c(CCC(=O)O)c5CC(=O)O)c(CCC(=O)O)c4C)C(CCC(=O)O)=C3C
18 | 0.612 µM |  |  | O=C(O)c1ccc(/C2=C3\C=CC(=N3)/C(c3ccccc3)=c3/cc/c([nH]3)=C(\c3ccc(C(=O)O)cc3)C3C=CC(N3)/C(c3ccc(C(=O)O)cc3)=C3/C=CC2=N3)cc1 (stereo unspecified)
19 | 1.07 µM | 1.07 µM |  | NC(=O)c1ccc(/C2=C3\C=CC(=N3)/C(c3ccc(C(N)=O)cc3)=c3/cc/c([nH]3)=C(\c3ccc(C(N)=O)cc3)C3C=CC(N3)/C(c3ccc(C(N)=O)cc3)=C3/C=CC2=N3)cc1 (stereo unspecified)
20 | 5.59 µM | 5.62 µM |  | C=CC1=C(C)c2cc3nc(cc4[nH]c(cc5[nH]c(cc1n2)c(C)c5CO)c(C)c4CCC(=O)O)C(CCC(=O)O)=C3C
